Columns and labels:
Assay in all cases: relative viability (nuclei count vs DMSO), 5 days (fraction); higher = more cells survive
[1] = compound: CN1C=C(C2=CC=CC=C21)/C=C\3/C4=C(C=CC=N4)NC3=O + CC1(C)CCC(c2ccc(Cl)cc2)=C(CN2CCN(c3ccc(C(=O)NS(=O)(=O)c4ccc(N[C@H](CCN5CCOCC5)CSc5ccccc5)c(S(=O)(=O)C(F)(F)F)c4)cc3)CC2)C1 [Navitoclax] (partner 0.5 µM)
In short: (§1)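 One day after seeding in 1536-well plates, lung cancer cell lines were dosed by pin tool. Dosing was either single-drug or a fixed anchor-drug dose plus five library-drug doses (not always all listed) in √10 steps. After 5 days, nuclei were stained in one fix-and-stain step and counted on 4× images, and relative viability is the nuclei count of treated wells over that of vehicle wells, given as the median of duplicate plates.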

[2] = compound: CN1C=C(C2=CC=CC=C21)/C=C\3/C4=C(C=CC=N4)NC3=O + C[C@]1(O)C[C@@H](c2nc(-c3ccc4ccc(-c5ccccc5)nc4c3)c3c(N)nccn32)C1 [Linsitinib] (partner 1 µM)
In short: as §1

Trametinib + Navitoclax = compound: CC(=O)Nc1cccc(-n2c(=O)n(C3CC3)c(=O)c3c(Nc4ccc(I)cc4F)n(C)c(=O)c(C)c32)c1 [Trametinib] + CC1(C)CCC(c2ccc(Cl)cc2)=C(CN2CCN(c3ccc(C(=O)NS(=O)(=O)c4ccc(N[C@H](CCN5CCOCC5)CSc5ccccc5)c(S(=O)(=O)C(F)(F)F)c4)cc3)CC2)C1 [Navitoclax] (partner 0.5 µM)
In short: as §1

Trametinib + OSI-027 = compound: CC(=O)Nc1cccc(-n2c(=O)n(C3CC3)c(=O)c3c(Nc4ccc(I)cc4F)n(C)c(=O)c(C)c32)c1 [Trametinib] + COc1cccc2cc(-c3nc([C@H]4CC[C@H](C(=O)O)CC4)n4ncnc(N)c34)[nH]c12 [OSI-027] (partner 0.5 µM)
In short: as §1

Cell Line | relative viability ([1]; first compound 0.02 µM) | relative viability ([1]; first compound 0.06325 µM) | relative viability ([1]; first compound 0.2 µM) | relative viability ([1]; first compound 0.6325 µM) | relative viability ([1]; first compound 2 µM) | relative viability ([2]; first compound 0.02 µM) | relative viability ([2]; first compound 0.06325 µM) | relative viability ([2]; first compound 0.2 µM) | relative viability ([2]; first compound 0.6325 µM) | relative viability ([2]; first compound 2 µM) | relative viability (Trametinib + Navitoclax; first compound 0.0025 µM) | relative viability (Trametinib + Navitoclax; first compound 0.007906 µM) | relative viability (Trametinib + Navitoclax; first compound 0.025 µM) | relative viability (Trametinib + Navitoclax; first compound 0.07906 µM) | relative viability (Trametinib + Navitoclax; first compound 0.25 µM) | relative viability (Trametinib + OSI-027; first compound 0.0025 µM) | relative viability (Trametinib + OSI-027; first compound 0.007906 µM) | relative viability (Trametinib + OSI-027; first compound 0.025 µM) | relative viability (Trametinib + OSI-027; first compound 0.07906 µM) | relative viability (Trametinib + OSI-027; first compound 0.25 µM)
SK-LU-1 | 0.482 | 0.812 | 0.802 | 1 | 1.23 | 0.838 | 0.894 | 1.15 | 1.09 | 1.14 | 0.971 | 0.929 | 0.65 | 0.337 | 0.296 | 0.319 | 0.313 | 0.217 | 0.198 | 0.188
NCI-H1734 | 0.817 | 0.82 | – | 0.798 | 0.83 | 0.803 | 0.853 | – | 1.09 | 0.889 | 0.865 | 0.736 | – | 0.657 | 0.474 | 0.591 | 0.517 | 0.404 | 0.492 | 0.278
HCC-44 | 0.943 | 1.03 | 0.89 | 0.726 | 0.772 | 0.577 | 0.637 | 0.651 | 0.593 | 0.604 | 1.03 | 0.751 | 0.865 | 0.805 | 0.446 | 0.487 | 0.249 | 0.424 | 0.311 | 0.183
NCI-H1395 | 1.08 | 0.967 | – | 1.09 | 1.11 | 0.977 | 1.11 | – | 1.15 | 0.945 | 1.17 | 1.01 | 1.27 | 1.14 | 0.685 | 0.693 | 0.617 | 0.552 | 0.468 | 0.404
NCI-H1355 | 0.868 | 0.921 | 0.793 | 0.632 | 0.673 | 0.702 | 0.748 | 0.73 | 0.56 | 0.632 | 0.764 | 0.832 | 0.51 | 0.563 | 0.414 | 0.344 | 0.327 | 0.241 | 0.263 | 0.242
NCI-H1666 | 1.19 | 0.883 | 0.879 | 0.761 | 0.542 | 0.85 | 0.712 | 0.79 | 0.748 | 0.665 | 0.613 | 0.64 | 0.375 | 0.456 | 0.393 | 0.765 | 0.811 | 0.632 | 0.675 | 0.552
HCC-78 | 0.692 | 0.71 | 0.589 | 0.778 | 0.758 | 0.444 | 0.51 | 0.233 | 0.423 | 0.487 | 0.728 | 0.591 | 0.558 | 0.624 | 0.42 | 0.366 | 0.361 | 0.313 | 0.343 | 0.333
H3255 | 0.547 | 0.484 | 0.422 | 0.439 | 0.425 | 1.06 | 0.989 | 0.945 | 0.816 | 1.11 | 0.468 | 0.316 | 0.251 | 0.161 | 0.18 | 0.595 | 0.571 | 0.462 | 0.397 | 0.338
NCI-H23 | 0.558 | 0.764 | – | 0.807 | 0.931 | 0.614 | 0.648 | – | 0.655 | 0.631 | 0.624 | 0.58 | 0.347 | 0.344 | 0.247 | 0.588 | 0.429 | 0.268 | 0.374 | 0.158
NCI-H1944 | 1.11 | 1.01 | – | 1.09 | 1.13 | 1.19 | 1.18 | – | 1.32 | 1.23 | 0.916 | 0.71 | 0.544 | 0.664 | 0.49 | 0.359 | 0.309 | 0.318 | 0.279 | 0.23
NCI-H1651 | 0.955 | 0.969 | 1.24 | 1.05 | 1.15 | 0.958 | 0.989 | 1.03 | 1.06 | 1.05 | 1.02 | 0.943 | 0.933 | 0.844 | 0.778 | 0.54 | 0.702 | 0.443 | 0.603 | 0.469
COR-L 105 | 0.552 | 0.563 | 0.711 | 0.727 | 0.873 | 0.969 | 0.948 | 0.9 | 0.809 | 0.916 | 0.594 | 0.517 | 0.417 | 0.387 | 0.324 | 0.583 | 0.477 | 0.309 | 0.333 | 0.295
RERF-LC-KJ | 1.03 | 0.937 | 0.707 | 0.691 | 0.51 | 0.886 | 0.935 | 0.929 | 0.813 | 0.84 | 0.948 | 1.09 | 0.968 | 0.966 | 0.717 | 0.493 | 0.471 | 0.414 | 0.459 | 0.372
NCI-H1793 | 0.425 | 0.415 | 0.267 | 1.05 | 0.934 | 1 | 1.06 | 0.748 | 0.95 | 0.884 | 0.36 | 0.345 | 0.265 | 0.216 | 0.133 | 0.245 | 0.236 | 0.204 | 0.199 | 0.199
CAL-12T | 1.22 | 1.11 | 1.22 | 1.19 | 1.14 | 0.821 | 0.787 | 0.809 | 1.05 | 0.809 | 1.04 | 0.831 | 0.554 | 0.738 | 0.492 | 0.543 | 0.333 | 0.224 | 0.353 | 0.193
NCI-H1993 | 0.726 | 0.768 | 0.894 | 0.682 | 0.856 | 0.539 | 0.635 | 0.71 | 0.765 | 0.621 | 0.794 | 0.748 | 0.65 | 0.764 | 0.774 | 0.545 | 0.606 | 0.624 | 0.657 | 0.699
LXF-289 | 0.962 | 0.908 | 0.97 | 1.01 | 1.01 | 0.901 | 0.935 | 1.04 | 1 | 0.999 | 0.872 | 0.755 | 0.721 | 0.63 | 0.538 | 0.766 | 0.656 | 0.452 | 0.453 | 0.243
NCI-H1792 | 0.343 | 0.642 | 0.529 | – | 0.496 | 0.37 | 0.495 | 0.391 | – | 0.486 | 0.646 | 0.596 | 0.417 | 0.392 | 0.332 | 0.565 | 0.62 | 0.745 | 0.618 | 0.51
LU99A | 0.86 | 0.849 | 0.857 | 0.865 | 0.79 | 0.534 | 0.506 | 0.509 | 0.485 | 0.617 | 0.855 | 0.779 | 0.465 | 0.363 | 0.235 | 0.301 | 0.294 | 0.287 | 0.326 | 0.297
SW 1573 | 1.18 | 0.861 | 1.02 | 1.12 | 0.893 | 0.894 | 0.793 | 0.914 | 0.787 | 0.965 | 0.723 | 0.885 | 0.609 | 0.546 | 0.404 | 0.474 | 0.486 | 0.344 | 0.338 | 0.285
COR-L23 | 1.19 | 0.983 | 1.03 | 1 | 1.09 | 0.924 | 0.967 | 0.865 | 1.03 | 0.865 | 0.977 | 1.02 | 1.04 | 0.694 | 0.475 | 0.686 | 0.7 | 0.364 | 0.455 | 0.249
NCI-H1755 | 0.836 | 1 | 0.98 | 0.909 | 0.885 | 0.95 | 1.01 | 0.967 | 0.968 | 0.991 | 0.958 | 0.952 | 0.901 | 0.918 | 0.838 | 0.668 | 0.673 | 0.559 | 0.707 | 0.664
LOU-NH91 | 0.555 | 0.603 | 0.596 | 0.602 | 0.678 | 0.858 | 0.889 | 0.851 | 0.928 | 0.927 | 0.657 | 0.528 | 0.57 | 0.448 | 0.32 | 0.735 | 0.654 | 0.568 | 0.53 | 0.478
EMC-BAC-2 | 0.924 | 1.12 | 1.25 | 1.13 | 1.35 | 0.787 | 0.826 | 0.806 | 0.852 | 0.867 | 1.07 | 0.956 | 1.06 | 0.891 | 0.817 | 0.452 | 0.488 | 0.381 | 0.511 | 0.359
NCI-H2023 | 1.06 | 0.935 | 0.961 | 1.03 | 0.996 | 0.615 | 0.657 | 0.628 | 0.665 | 0.692 | 0.864 | 0.825 | 0.877 | 0.549 | 0.33 | 0.344 | 0.297 | 0.229 | 0.311 | 0.188
EKVX | 0.909 | 0.774 | 0.811 | 0.7 | 0.772 | 0.911 | 0.926 | 0.921 | 0.729 | 0.883 | 0.728 | 0.627 | 0.37 | 0.376 | 0.371 | 0.667 | 0.532 | 0.379 | 0.473 | 0.426
NCI-H2085 | 1.04 | 1.15 | 1.19 | 1.22 | 1.18 | 0.867 | 0.825 | 0.867 | 0.866 | 1.02 | 1.07 | 0.9 | 0.924 | 0.878 | 0.81 | 0.469 | 0.352 | 0.281 | 0.329 | 0.298
